Data set [1] can be described thus: Human liver microsomal stability test. The data set is classed as in vitro ADME. Conditions: 100 nM compound, 0.1 mg protein/ml, 35 min, 37°C. As to the method: Human liver microsomal stability tests were performed by Sumika Chemical Analysis Service (Osaka, Japan). Compounds (100 nM) were incubated with human liver microsomes (0.1 mg protein/ml) for 35 min at 37°C and subjected to liquid chromatography-tandem mass spectrometry (LC-MS/MS) for quantification of the loss of the tested compounds.
On the technique in general: Liver microsomes are vesicles of endoplasmic reticulum, rich in cytochrome P450 enzymes.

For data set [2], the system named is P. aeruginosa PAO1/pME-VIM-2. As to the kind of experiment: Susceptibility testing, VIM-2-producing P. aeruginosa PAO1. Particulars: Pseudomonas aeruginosa. The data set is classed as cell-based. Here is the method:
(§1) MICs were determined via the microdilution method according to the CLSI guidelines ([38]). In brief, 5 × 10^4 bacterial cells were inoculated in 100 μl of cation-adjusted Mueller-Hinton broth (Becton, Dickinson and Company, Franklin Lakes, NJ) containing the β-lactams and appropriately diluted inhibitors. The final concentration of DMSO was maintained at 2% in the assays. The tested plates were then incubated at 35°C for 16 to 20 h. The MIC value was determined as the lowest concentration of tested β-lactams where no bacterial growth was visibly observed. The optical density at 600 nm (OD600) value was measured using a plate reader for drawing the heat maps. The FIC index value was calculated using the following equation: FIC index=MIC of β-lactam with inhibitor/MIC of β-lactam alone+MIC of inhibitor with β-lactam/MIC of inhibitor alone

Data set [3] concerns IMP-1-producing E. coli NUBL-24. As to the kind of experiment: Mouse infection model, E. coli NUBL-24, survival. The data set is classed as in vivo, mice. Conditions: MPM 0.8 mg/kg and SPC 10 mg/kg versus MPM alone, E. coli NUBL-24 1 × 10^7 CFU. As to the method: (§2) All experiments were approved by the Nagoya University Animal Ethics Committee, and all experiments were performed in a manner that minimized animal suffering. Male CD1 mice (4 weeks old; 20 to 25 g body weight) were purchased from Charles River Laboratories Japan (Yokohama, Japan). E. coli NUBL-24 (blaIMP-1) and K. pneumoniae MS5674 (blaNDM-1 and blaVIM-1) strains were inoculated on LB agar plates and grown for 18 h at 37°C. Bacteria were then scraped from the plates, and their concentration was adjusted to 5 × 10^6 to 1 × 10^7 CFU in saline solution containing 5% mucin; this solution was then i.p. injected into the mice. At 1 and 3 h after infection, saline solution, MPM, inhibitors, and a combination of MPM and inhibitor were i.p. injected. Mice were monitored for 7 days to formulate survival curves, after which they were euthanized by CO2 asphyxiation.

For data set [4], the system named is NDM-type MBL-producing Enterobacteriaceae. As to the kind of experiment: Susceptibility testing, 14 NDM-type MBL-producing Enterobacteriaceae isolates. The data set is classed as cell-based. Conditions: NDM producers. As to the method:
as §1

Data set [5] has as its system E. coli BL21(DE3)/pET-SPM-1. The experiment in a line: Susceptibility testing, SPM-1-producing E. coli. Particulars: Escherichia coli. Type of data set: cell-based. As to the method:
as §1

For another data set, the system named is E. coli DH5α/pBC-NDM-1. As to the kind of experiment: Susceptibility and checkerboard testing, NDM-1-producing E. coli. Particulars: for MIC: Escherichia coli. Type of data set: cell-based, Escherichia coli. Here is the method: as §1
(§3) Unless noted otherwise, the FIC index was defined as the lowest value among all obtained values. The synergistic effect was defined as the effect observed when the FIC index value was ≤0.5.

The next data set addresses T1, VIM-2 (Escherichia coli, UniProt Q5U7L7).
T1 construct: made in house
As to the kind of experiment: Inhibition of IPM hydrolysis by purified VIM-2, Ki by Lineweaver-Burk plots. Particulars: IPM as substrate, competitive model, mean of three replicates; read-out: Inhibition constant Ki VIM-2. Type of data set: biochemical. As to the method:
(§4) MBL (10 nM) was mixed with the inhibitors and incubated for 5 min at 30°C. IPM was added to reach a concentration of 150 μM, and the velocity of IPM hydrolysis was monitored at 298 nm. The assay was performed at 30°C using 10 mM HEPES (pH 7.5) buffer containing 200 mM NaCl and 50 μg/ml bovine serum albumin (BSA) for IMP-1, NDM-1, VIM-2, and SMB-1. For SFH-1 and L1, another 10 mM HEPES (pH 7.5) buffer containing 200 mM NaCl, 20 μM ZnSO4, and 50 μg/ml BSA was used.
(§5) Initial velocities (vo) were measured after varying the concentrations of IPM and inhibitors, and inverse velocities (1/vo) were plotted against inverse IPM concentrations […]. Lineweaver-Burk plots were constructed to obtain the inhibition constant (Ki) with the competitive inhibition model using the SigmaPlot 13 suite (Hulinks).

The subject of another data set is HeLa cells. The experiment in a line: Toxicity assay in HeLa cells (CellTiter 96 AQueous). Type of data set: cell-based. Conditions: 24 h exposure, cell proliferation assay. As to the method:
HeLa cells were seeded at 5,000 cells per well in 96-well plates and cultured in Dulbecco’s modified Eagle’s medium (DMEM) (Wako Pure Chemical Industries, Osaka, Japan). After incubation for 24 h at 37°C with 5% CO2, staurosporine (Sigma-Aldrich, St. Louis, MO) and SHCs were added to each well (final DMSO concentration was 1%), after which the plates were incubated for another 24 h. Twenty microliters of tetrazolium solution, obtained from a CellTiter 96 AQueous one-solution cell proliferation assay kit (Promega, Madison, WI), was added into each well. The plate was incubated for 3 h under the same conditions mentioned above, and the absorbance at 490 nm was measured for the determination of cell proliferation.

Data set [6] has as its system E. coli BL21(DE3)/pET-DIM-1. The experiment in a line: Susceptibility testing, DIM-1-producing E. coli. The data set is classed as cell-based. Particulars: Escherichia coli. As to the method:
as §1

The next data set has as its target T2, NDM-1 (Klebsiella pneumoniae, UniProt C7C422).
T2 construct: made in house
The experiment in a line: Inhibition of IPM hydrolysis by purified NDM-1, Ki by Lineweaver-Burk plots. Type of data set: biochemical. Particulars: IPM as substrate, competitive model, mean of three replicates; read-out: Inhibition constant Ki NDM-1. Here is the method: as §4, §5

In data set [7] the test system is P. aeruginosa PAO1/pME-IMP-1. The experiment in a line: Susceptibility testing, IMP-1-producing P. aeruginosa PAO1. Type of data set: cell-based. Conditions: Pseudomonas aeruginosa. As to the method:
as §1

For data set [8], the target named is T3, IMP-1 (Serratia marcescens, UniProt P52699).
T3 construct: made in house
The experiment in a line: Inhibition of IPM hydrolysis by purified IMP-1, Ki by Lineweaver-Burk plots. The data set is classed as biochemical. As to the method: as §4, §5

In data set [9] the test system is dually NDM-1/VIM-1-producing Klebsiella pneumoniae MS5674. As to the kind of experiment: Mouse infection model, K. pneumoniae MS5674, survival. Type of data set: in vivo, mice. Particulars: MPM 4 mg/kg and SPC 10 mg/kg versus MPM alone, K. pneumoniae MS5674 1 × 10^7 CFU. Here is the method:
as §2

In data set [10] the test system is E. coli BL21(DE3)/pET-KHM-1. As to the kind of experiment: Susceptibility testing, KHM-1-producing E. coli. The data set is classed as cell-based. Particulars: Escherichia coli. As to the method:
as §1

Data set [11] relates to IMP-1-producing Acinetobacter spp. The experiment in a line: Susceptibility testing, 8 IMP-1-producing Acinetobacter spp. isolates. Conditions: addition of SPC, concentration not given (Fig. S5). Type of data set: cell-based. As to the method: as §1
Data set [12] relates to P. aeruginosa PAO1/pME-NDM-1. The experiment in a line: Susceptibility testing, NDM-1-producing P. aeruginosa PAO1. Type of data set: cell-based. Conditions: Pseudomonas aeruginosa. As to the method: as §1
The next data set concerns E. coli DH5α/pBC-VIM-2. The experiment in a line: Susceptibility and checkerboard testing, VIM-2-producing E. coli. Type of data set: cell-based, Escherichia coli. Conditions: for MIC: Escherichia coli. As to the method:
as §1, §3

The next data set concerns E. coli DH5α/pBC-TMB-2. The experiment in a line: Susceptibility testing, TMB-2-producing E. coli. Type of data set: cell-based. Particulars: Escherichia coli. As to the method:
as §1

The test system of data set [13] is IMP-type MBL-producing Enterobacteriaceae. As to the kind of experiment: Susceptibility testing, 19 IMP-type MBL-producing Enterobacteriaceae isolates. The data set is classed as cell-based. As to the method: as §1
Data set [14] deals with E. coli BL21(DE3)/pET-SIM-1. As to the kind of experiment: Susceptibility testing, SIM-1-producing E. coli. The data set is classed as cell-based. Particulars: Escherichia coli. As to the method: as §1
A further data set concerns E. coli DH5α/pBC-IMP-1. The experiment in a line: Susceptibility and checkerboard testing, IMP-1-producing E. coli. Particulars: for MIC: Escherichia coli. The data set is classed as cell-based, Escherichia coli. As to the method: as §1, §3
The target of data set [15] is T3, IMP-1. As to the kind of experiment: Library screening, nitrocefin hydrolysis by IMP-1. Type of data set: biochemical. Conditions: 100 μM compound, 10 nM IMP-1, 100 μM nitrocefin, 1 h. The text has this: Screening compounds were provided from the curated collection of an in-house small-molecule chemical library (the chemical library of the Institute of Transformative Bio-Molecules [ITbM]). The library is composed of structurally diverse molecules, including synthetic molecules with unknown activity, known enzyme inhibitors, approved drugs, and natural products. Some of these molecules are commercially available from several worldwide chemical suppliers, whereas some are structurally novel molecules synthesized in-house by ITbM. All compounds were dissolved in dimethyl sulfoxide (DMSO) at a concentration of 10 mM and stored at −20°C until further use. We screened 22,671 compounds in 96-well flat plates using nitrocefin as a reporter substrate ([37]). Each well included 20 mM HEPES-NaOH buffer (pH 7.5) containing 10 nM IMP-1, 100 μM nitrocefin, and 100 μM concentrations of the tested compounds. The absorbance (Abs) at 482 nm was measured after incubation for 1 h at room temperature. The inhibitory effect of compounds against IMP-1 was evaluated using the following equation: Residual ratio=Abs482 nm compound/Abs482 nm no compound

Where [16] appears, read: PAO1, read-out: MIC of MPM + inhibitor (10 μg/ml).
The mark [17] stands for this setting: PAO1, read-out: MIC of MPM + inhibitor (50 μg/ml).
[18] abbreviates: read-out: MIC of MPM + inhibitor (8 μg/ml).
[19] abbreviates: read-out: MIC of MPM + inhibitor (32 μg/ml).

Read-outs that look alike come from different tables or passages of the source. Bounds are passed on as bounds.

Experimental findings from PMC7078479, “Sulfamoyl Heteroarylcarboxylic Acids as Promising Metallo-β-Lactamase Inhibitors for Controlling Bacterial Carbapenem Resistance” (mBio, 2020) are described below.

In general, Ki refers to the equilibrium dissociation constant of an inhibitor or competing ligand from its target.

T3 sequence (P52699 19-246 limits assumed): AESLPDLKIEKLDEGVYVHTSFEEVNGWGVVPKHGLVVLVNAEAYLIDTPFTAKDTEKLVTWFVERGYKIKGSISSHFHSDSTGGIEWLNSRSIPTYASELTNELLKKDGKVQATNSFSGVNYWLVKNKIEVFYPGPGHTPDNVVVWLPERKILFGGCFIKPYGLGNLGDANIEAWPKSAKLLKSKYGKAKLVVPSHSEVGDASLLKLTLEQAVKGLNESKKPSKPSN
T2 sequence (C7C422 29-270 limits assumed): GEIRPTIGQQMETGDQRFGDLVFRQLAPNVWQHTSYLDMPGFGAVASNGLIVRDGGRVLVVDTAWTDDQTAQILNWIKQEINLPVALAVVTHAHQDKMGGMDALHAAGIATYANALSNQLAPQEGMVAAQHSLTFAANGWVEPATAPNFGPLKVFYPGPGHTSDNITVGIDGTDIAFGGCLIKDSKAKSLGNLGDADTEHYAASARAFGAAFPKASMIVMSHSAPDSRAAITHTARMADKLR

`CCc1c(C(=O)O)c(S(N)(=O)=O)c(CC)n1C` [SPC, 2,5-diethyl-1-methyl-4-sulfamoylpyrrole-3-carboxylic acid]: the “Stability in human liver microsomes” value in [1] is given as “high stability”. The MIC in [2] (setting [16]) was 8 µg/mL; in data set [2] (setting [17]) it was 4 µg/mL; in data set [5] (setting [18]), 0.063 µg/mL; in data set [5] (setting [19]), 0.063 µg/mL; in the data set with E. coli DH5α/pBC-NDM-1 (setting [18]) it was no more than 0.25 µg/mL; in the data set on E. coli DH5α/pBC-NDM-1 (setting [19]), no more than 0.25 µg/mL. Further, the MIC was found to be 2 µg/mL in data set [6] (setting [18]); 0.063 µg/mL in [6] (setting [19]); 64 µg/mL in [7] (setting [16]); 16 µg/mL in data set [7] (setting [17]); 0.125 µg/mL in data set [10] (setting [18]); 0.063 µg/mL in [10] (setting [19]). For the same compound, the MIC was found to be 4 µg/mL in data set [12] (setting [16]); 4 µg/mL in [12] (setting [17]); 1 µg/mL in the data set with E. coli DH5α/pBC-VIM-2 (read-out: MIC of CAZ + inhibitor (8 μg/ml)); 1 µg/mL with E. coli DH5α/pBC-VIM-2 (read-out: MIC of CAZ + inhibitor (32 μg/ml)); 0.063 µg/mL in the data set on E. coli DH5α/pBC-TMB-2 (setting [18]); 0.031 µg/mL with E. coli DH5α/pBC-TMB-2 (setting [19]). Also, the MIC in [14] (setting [18]) was 1 µg/mL; in data set [14] (setting [19]), 0.125 µg/mL; in the data set with E. coli DH5α/pBC-IMP-1 (setting [18]), 0.031 µg/mL; with E. coli DH5α/pBC-IMP-1 (setting [19]), 0.031 µg/mL. The “Mortality of infected mice under MPM-SPC combination therapy” value in [3] and in [9] was “significantly reduced the mortality” each time. Moreover, the “Isolates whose MPM MIC decreased to susceptibility criteria (MIC ≤1 μg/ml)” value in data set [4] (addition of inhibitor, concentration not given (Fig. S5)) is reported as 7/14; in data set [13] (addition of inhibitor, concentration not given (Fig. S5), IMP-producing Enterobacteriaceae), 17/19. For the same compound, the “Isolates with equal or increased reactivity toward SPC instead of SFC” value in [4] (reduction in MPM MIC, 4 μg/ml SPC and SFC) was 14/14; in [13] (reduction in MPM MIC, 4 μg/ml SPC and SFC, IMP producers), 18/19. Also, the “Reduction in MPM MIC” value with E. coli DH5α/pBC-NDM-1 (E. coli DH5α/pBC-NDM-1, 2 μg/ml compound) is on record as 256 fold; with E. coli DH5α/pBC-IMP-1 (E. coli DH5α/pBC-IMP-1, 2 μg/ml compound), 32 fold. Also, the values for the Ki on VIM-2, at NDM-1 and at IMP-1 [8] were 20 nM, 840 nM and 260 nM, respectively. In the data set with HeLa cells, the “Toxicity in HeLa cells” value is on record as “low toxicity”. Besides, in data set [11], the “Isolates whose MPM MIC decreased to susceptibility criteria (MIC ≤2 μg/ml)” value was 6/8. In the data set with E. coli DH5α/pBC-VIM-2 (E. coli DH5α/pBC-VIM-2, 2 μg/ml compound), the “Reduction in CAZ MIC” value is recorded as 16 fold.

Regarding `O=C([O-])C1=CS[C@@H]2/C(=C\c3cn4c(n3)COCC4)C(=O)N12.[Na+]` [BLI-489], the “Residual ratio (Abs482 compound/no compound)” value on IMP-1 [15] is listed as less than 0.6.
